Values after ≈ are worked out from the molar mass of the structure shown.
Columns and labels:
Staphylococcus aureus [1] = assay: Antimicrobial activity against Staphylococcus aureus; assay type: functional
Bacillus cereus = assay: Antimicrobial activity against Bacillus cereus; assay type: functional
Pichia kudriavzevii = assay: Antifungal activity against Candida krusei
Candida albicans [2] = assay: Antifungal activity against Candida albicans; assay type: functional
Nakaseomyces glabratus = assay: Antifungal activity against Candida glabrata; assay type: functional
Escherichia coli [3] = assay: Antimicrobial activity against Escherichia coli; assay type: functional
Klebsiella pneumoniae [4] = assay: Antimicrobial activity against Klebsiella pneumoniae after 24 hrs by agar disk diffusion method; assay type: functional
Klebsiella pneumoniae [5] = assay: Antimicrobial activity against Klebsiella pneumoniae ATCC 700603 assessed as zone of inhibition at 100 ug/ml after 24 hrs by disc diffusion method; assay type: functional; details: ATCC 700603, 24 h, read-out: IZ
Staphylococcus aureus [6] = assay: Antimicrobial activity against Staphylococcus aureus ATCC 25923 assessed as zone of inhibition at 100 ug/ml after 24 hrs by disc diffusion method; assay type: functional; details: ATCC 25923, 24 h, read-out: IZ
Pseudomonas aeruginosa [7] = assay: Antimicrobial activity against Pseudomonas aeruginosa; assay type: functional
Escherichia coli [8] = assay: Antimicrobial activity against Escherichia coli after 24 hrs by agar disk diffusion method; assay type: functional
Aspergillus niger [9] = assay: Antifungal activity against Aspergillus niger; assay type: functional
Candida tropicalis = assay: Antifungal activity against Candida tropicalis; assay type: functional
Pseudomonas aeruginosa [10] = assay: Antimicrobial activity against Pseudomonas aeruginosa after 24 hrs by agar disk diffusion method; assay type: functional
Proteus mirabilis = assay: Antimicrobial activity against Proteus mirabilis after 24 hrs by agar disk diffusion method; assay type: functional
Bacillus subtilis [11] = assay: Antimicrobial activity against Bacillus subtilis; assay type: functional
Aspergillus flavus = assay: Antifungal activity against Aspergillus flavus; assay type: functional
[12] = test system: Talaromyces purpureogenus; assay: Antifungal activity against Penicillium purpurogenum; assay type: functional
Trichothecium roseum = assay: Antifungal activity against Trichothecium roseum; assay type: functional
Aspergillus niger [13] = assay: Antifungal activity against Aspergillus niger NCIM 545 after 48 hrs by NCCLS protocol based method; assay type: functional; details: NCIM 545, 48 h
Aspergillus niger [14] = assay: Antifungal activity against Aspergillus niger assessed as zone of inhibition at 10 ug/ml; assay type: functional; details: read-out: IZ
Escherichia coli [15] = assay: Antimicrobial activity against Escherichia coli assessed as zone of inhibition at 10 ug/ml; assay type: functional; details: read-out: IZ
Lactococcus lactis = assay: Antimicrobial activity against Streptococcus lactis assessed as zone of inhibition at 10 ug/ml; assay type: functional; details: read-out: IZ
Escherichia coli [16] = assay: Antimicrobial activity against Escherichia coli assessed as zone of inhibition at 5 mg/ml after 24 to 48 hrs by well diffusion method; assay type: functional; details: read-out: IZ
Candida albicans [17] = assay: Antifungal activity against Candida albicans assessed as zone of inhibition at 10 ug/ml; assay type: functional; details: read-out: IZ
Penicillium = assay: Antifungal activity against Penicillium assessed as zone of inhibition at 10 ug/ml; assay type: functional; details: read-out: IZ
Escherichia coli [18] = assay: Antimicrobial activity against Escherichia coli ATCC 25922 after 48 hrs by NCCLS protocol based method; assay type: functional; details: ATCC 25922, 48 h
Bacillus subtilis [19] = assay: Antimicrobial activity against Bacillus subtilis assessed as zone of inhibition at 10 ug/ml; assay type: functional; details: read-out: IZ
[20] = Antifungal activity against Rhodotorula ingeniosa assessed as zone of inhibition at 10 ug/ml; assay type: functional; details: Sampaiozyma ingeniosa; read-out: IZ
Bacillus subtilis [21] = assay: Antimicrobial activity against Bacillus subtilis NCIM 2250 after 48 hrs by NCCLS protocol based method; assay type: functional; details: NCIM 2250, 48 h
Candida albicans [22] = assay: Antifungal activity against Candida albicans MTCC 277 after 48 hrs by NCCLS protocol based method; assay type: functional; details: MTCC 277, 48 h
Pseudomonas = assay: Antimicrobial activity against Pseudomonas assessed as zone of inhibition at 10 ug/ml; assay type: functional; details: read-out: IZ
Pseudomonas aeruginosa [23] = assay: Antimicrobial activity against Pseudomonas aeruginosa assessed as zone of inhibition at 5 mg/ml after 24 to 48 hrs by well diffusion method; assay type: functional; details: read-out: IZ
Streptomyces = assay: Antimicrobial activity against Streptomyces assessed as zone of inhibition at 10 ug/ml; assay type: functional; details: read-out: IZ
Klebsiella pneumoniae [24] = assay: Antimicrobial activity against Klebsiella pneumoniae; assay type: functional
Listeria monocytogenes = assay: Antimicrobial activity against Listeria monocytogenes; assay type: functional
Proteus vulgaris = assay: Antimicrobial activity against Proteus vulgaris; assay type: functional
Salmonella typhimurium = assay: Antimicrobial activity against Salmonella typhimurium; assay type: functional, Salmonella enterica subsp. enterica serovar Typhimurium; details: Salmonella enterica
Enterococcus faecalis = assay: Antimicrobial activity against Enterococcus faecalis; assay type: functional
Bacillus subtilis [25] = assay: Antimicrobial activity against Bacillus subtilis assessed as zone of inhibition at 5 mg/ml after 24 to 48 hrs by well diffusion method; assay type: functional; details: read-out: IZ
Staphylococcus aureus [26] = assay: Antimicrobial activity against Staphylococcus aureus assessed as zone of inhibition at 5 mg/ml after 24 to 48 hrs by well diffusion method; assay type: functional; details: read-out: IZ

| MIC (Staphylococcus aureus [1]) [µg/mL] | MIC (Candida albicans [2]) [µg/mL] | MIC (Nakaseomyces glabratus) [µg/mL] | MIC (Escherichia coli [3]) [µg/mL] | MIC (Pseudomonas aeruginosa [7]) [µg/mL] | MIC (Candida tropicalis) [µg/mL] | MIC (Bacillus subtilis [11]) [µg/mL] | SMILES | MIC (Bacillus cereus) [µg/mL] | MIC (Pichia kudriavzevii) [µg/mL] | zone of inhibition at 5000 µg/mL (Escherichia coli [16]) [mm] | zone of inhibition at 5000 µg/mL (Pseudomonas aeruginosa [23]) [mm] | further results |
| --- | --- | --- | --- | --- | --- | --- | --- | --- | --- | --- | --- | --- |
| – | – | – | 30 to 40 (≈ 87.9 to 117 µM) | 30 to 40 (≈ 87.9 to 117 µM) | – | 30 to 40 (≈ 87.9 to 117 µM) | N=C(N)Nc1nnn(Cc2cccc(Cn3nnc(C(=N)N)n3)c2)n1 | 30 to 40 (≈ 87.9 to 117 µM) | – | – | – | MIC (Aspergillus flavus): 30 to 40 µg/mL (≈ 87.9 to 117 µM); MIC [12]: 30 to 40 µg/mL (≈ 87.9 to 117 µM); MIC (Trichothecium roseum): 30 to 40 µg/mL (≈ 87.9 to 117 µM) |
| 200 to 400 (≈ 344 to 688 µM) | – | – | 200 to 400 (≈ 344 to 688 µM) | 200 to 400 (≈ 344 to 688 µM) | – | 200 to 400 (≈ 344 to 688 µM) | CN[C@@H]1[C@H](O[C@H]2[C@H](O[C@H]3[C@H](O)[C@@H](O)[C@H](N=C(N)N)[C@@H](O)[C@@H]3N=C(N)N)O[C@@H](C)[C@]2(O)C=O)O[C@@H](CO)[C@H](O)[C@H]1O [STREPTOMYCIN] | – | – | 26.9 | 20.6 | MIC (Aspergillus niger [13]): 10 µg/mL (≈ 17.2 µM); zone of inhibition at 10 µg/mL (Aspergillus niger [14]): 21 to 22 mm; zone of inhibition at 10 µg/mL (Escherichia coli [15]): 21 to 22 mm; zone of inhibition at 10 µg/mL (Lactococcus lactis): 21 to 22 mm; zone of inhibition at 10 µg/mL (Candida albicans [17]): 21 to 22 mm; zone of inhibition at 10 µg/mL (Penicillium): 21 to 22 mm; MIC (Escherichia coli [18]): 10 µg/mL (≈ 17.2 µM); zone of inhibition at 10 µg/mL (Bacillus subtilis [19]): 21 to 22 mm; zone of inhibition at 10 µg/mL [20]: 21 to 22 mm; MIC (Bacillus subtilis [21]): 10 µg/mL (≈ 17.2 µM); MIC (Candida albicans [22]): 10 µg/mL (≈ 17.2 µM); zone of inhibition at 10 µg/mL (Pseudomonas): 21 to 22 mm; zone of inhibition at 10 µg/mL (Streptomyces): 21 to 22 mm |
| 16 to 64 (≈ 22.5 to 90 µM) | 16 to 64 (≈ 22.5 to 90 µM) | 16 to 64 (≈ 22.5 to 90 µM) | 16 to 64 (≈ 22.5 to 90 µM) | 16 to 64 (≈ 22.5 to 90 µM) | 16 to 64 (≈ 22.5 to 90 µM) | 16 to 64 (≈ 22.5 to 90 µM) | Fc1cc2nc(SCc3ccc(-c4ccccc4-c4nnnn4C(c4ccccc4)(c4ccccc4)c4ccccc4)cc3)[nH]c2cc1-n1ccnc1 | – | 16 to 64 (≈ 22.5 to 90 µM) | – | – | – |
| 12.5 to 400 (≈ 27.9 to 892 µM) | 12.5 to 400 (≈ 27.9 to 892 µM) | 12.5 to 400 (≈ 27.9 to 892 µM) | 12.5 to 400 (≈ 27.9 to 892 µM) | 12.5 to 400 (≈ 27.9 to 892 µM) | 12.5 to 400 (≈ 27.9 to 892 µM) | 12.5 to 400 (≈ 27.9 to 892 µM) | Cn1nnnc1SCC(=O)Nc1ccc(-c2nc3cc(Cl)c(Cl)cc3n2C)cc1 | – | – | – | – | MIC (Klebsiella pneumoniae [24]): 12.5 to 400 µg/mL (≈ 27.9 to 892 µM); MIC (Listeria monocytogenes): 12.5 to 400 µg/mL (≈ 27.9 to 892 µM); MIC (Proteus vulgaris): 12.5 to 400 µg/mL (≈ 27.9 to 892 µM); MIC (Salmonella typhimurium): 12.5 to 400 µg/mL (≈ 27.9 to 892 µM); MIC (Enterococcus faecalis): 12.5 to 400 µg/mL (≈ 27.9 to 892 µM) |

The next lines start with the compound.

| SMILES | MIC (Staphylococcus aureus [1]) [µg/mL] | MIC (Candida albicans [2]) [µg/mL] | MIC (Nakaseomyces glabratus) [µg/mL] | MIC (Escherichia coli [3]) [µg/mL] | MIC (Pseudomonas aeruginosa [7]) [µg/mL] | MIC (Candida tropicalis) [µg/mL] | MIC (Bacillus subtilis [11]) [µg/mL] | MIC (Bacillus cereus) [µg/mL] | MIC (Pichia kudriavzevii) [µg/mL] | zone of inhibition at 5000 µg/mL (Escherichia coli [16]) [mm] | zone of inhibition at 5000 µg/mL (Pseudomonas aeruginosa [23]) [mm] | further results |
| --- | --- | --- | --- | --- | --- | --- | --- | --- | --- | --- | --- | --- |
| CC1(C)S[C@@H]2[C@H](NC(=O)[C@H](N)c3ccccc3)C(=O)N2[C@H]1C(=O)O [AMPICILLIN] | 2 to 250 (≈ 5.72 to 715 µM) | 2 to 250 (≈ 5.72 to 715 µM) | 2 to 64 (≈ 5.72 to 183 µM) | 2 to 250 (≈ 5.72 to 715 µM) | 2 to 250 (≈ 5.72 to 715 µM) | 2 to 64 (≈ 5.72 to 183 µM) | 2 to 64 (≈ 5.72 to 183 µM) | 6.25 (≈ 17.9 µM) | 2 to 64 (≈ 5.72 to 183 µM) | – | – | MIC (Klebsiella pneumoniae [4]): 6.25 µg/mL (≈ 17.9 µM); zone of inhibition at 100 µg/mL (Klebsiella pneumoniae [5]): 15 mm; zone of inhibition at 100 µg/mL (Staphylococcus aureus [6]): 16.5 mm; MIC (Escherichia coli [8]): 6.25 µg/mL (≈ 17.9 µM); MIC (Aspergillus niger [9]): 100 to 250 µg/mL (≈ 286 to 715 µM); MIC (Pseudomonas aeruginosa [10]): 6.25 µg/mL (≈ 17.9 µM); MIC (Proteus mirabilis): 6.25 µg/mL (≈ 17.9 µM) |
| Cc1c(-c2cc(-c3ccccc3)nc3nnnn23)cnn1-c1ccccc1 | – | – | – | – | – | – | – | – | – | 13.7 to 18.6 | 13.7 to 18.6 | zone of inhibition at 5000 µg/mL (Bacillus subtilis [25]): 13.7 to 18.6 mm; zone of inhibition at 5000 µg/mL (Staphylococcus aureus [26]): 13.7 to 18.6 mm |

Source: ChEMBL document CHEMBL4342421, “Current scenario of tetrazole hybrids for antibacterial activity” (Eur J Med Chem, 2019)
